# Measurements as given in patent US9759730B2, “Method and device for the determination of platelet function under flow conditions” (SIEMENS HEALTHCARE DIAGNOSTICS PRODUCTS GMBH, priority 2006, dated 2017).
# Read-outs that look alike come from different tables or passages of the source.
# What was measured:
# [1] = system: platelet function in whole blood; assay: Closure time under flow conditions, ADP/PGE1 test cartridge without calcium in PFA-100, PPACK whole blood treated in vitro; assay type: cell-based, human; details: cut-off 90 seconds, MRS 2395 150 μmol/L, ASA 30 μmol/L, MRS 2179 75 μmol/L; for Number of samples with closure times above cut-off (n = 10): ADP/PGE1 cartridge without calcium, PPACK whole blood of 10 healthy donors; for closure time relative to cut-off (FIG. 3, mean values): ADP/PGE1 cartridge, PPACK blood, 10 donors
# Experimental: Venous blood was taken from 10 healthy donors and anticoagulated with 75 μM PPACK.
# (§1) Aliquots of the whole blood samples were treated in vitro with the P2Y(12) antagonist MRS 2395 (Sigma-Aldrich Chemie GmbH, Steinheim, Germany). For this purpose an ethanolic MRS 2395 stock solution (15 mg/mL) was mixed with the whole blood samples so that an end concentration of 150 μmol/L was obtained.
# Further aliquots of the whole blood samples were treated in vitro with the COX-1 inhibitor acetylsalicylic acid (abbr. ASA; Sigma-Aldrich Chemie GmbH, Steinheim, Germany). For this purpose an aqueous ASA stock solution (1 mg/mL) was mixed with the whole blood samples so that an end concentration of 30 μmol/L was obtained.
# as §1, with “Further aliquots” for “Aliquots”, “P2Y(1)” for “P2Y(12)”, “2179” for “2395”, “aqueous” for “ethanolic”, “(1 mg/ml)” for “(15 mg/mL)”, “75” for “150”
# (§2) After addition of the reagents the blood samples were incubated at room temperature for 5 minutes.
# For the determination of the closure time as a measure of the platelet function the whole blood samples described under Example 4a) were investigated with the aid of a ADP/PGE1 test cartridge according to the invention in a PFA-100® apparatus (Platelet Function Analyzer-100, Dade Behring Marburg GmbH, Marburg, Germany). The ADP/PGE1 test cartridge according to the invention used was prepared essentially as described in Example 1 but without the partition member having been treated with CaCl2.2H2O. The test cartridge thus comprised 7 μg ADP and 5 ng PGE1 but no calcium ions.
# 700 μL of a blood sample was added to the reservoir of the temperature equilibrated test cartridge (+37° C.) and incubated at +37° C. in the apparatus for 3 minutes. Next a partial vacuum of −40 mbar was applied by the apparatus when the blood was sucked through a capillary (diameter 200 μm) from the reservoir and finally through an opening (aperture) of the partition member in the measurement chamber. The time that was required up to the closure of the aperture by formation of a blood clot was determined as closure time. Every sample investigated was determined in duplicate and the mean value of a duplicate determination was used as the measurement value.
# Owing to the use of PPACK as anticoagulant the cut-off determined with citrated whole blood in the above-described examples cannot be used. Therefore, the reference range for the ADP/PGE1 closure time from the 10 samples of the healthy donors treated with PPACK was calculated by the determination of the 90% central interval of the normal distribution of the mean values of the duplicate determinations. This gave the following reference ranges for the closure times:
# The upper limit of the 90% central interval was defined as cut-off, i.e. as threshold value for a platelet dysfunction.
# [2] = system: platelet function in whole blood; assay: Closure time under flow conditions, ADP/PGE1/calcium test cartridge in PFA-100, citrated whole blood treated in vitro; assay type: cell-based, human; details: cut-off 81 seconds, MRS 2395 100 μmol/L; for Number of samples with closure times above cut-off (n = 11): ASA 30 μmol/L, citrated whole blood of 11 healthy donors
# Experimental: For the preparation of a partition member for a test cartridge according to the invention a polyether sulfone filter membrane (Supor® membrane, Pall GmbH, Dreieich, Germany) was cut into strips. 1 μL of a solution comprising 7 μg/μL ADP (adenosine-5′-diphosphate potassium salt.2H2O, Sigma-Aldrich Chemie GmbH, Steinheim, Germany) and 5 ng/μL PGE1 (prostaglandin E1, Sigma-Aldrich Chemie GmbH, Steinheim, Germany) and 367.5 μg/μL CaCl2.2H2O (equivalent to 100 μg/μL Ca^2+ ions) were pipetted punctiform onto the membrane and the membrane was dried. Next a circular opening (aperture) with a diameter of 100 μm was punched out of the middle of the region of the membrane treated with the reagents. The membrane thus prepared was used as partition member in the measurement chamber of a PFA-100® test cartridge (Dade Behring Marburg GmbH, Marburg, Germany).
# (§3) Venous blood was taken from 11 healthy donors and anticoagulated with sodium citrate (3.2% buffered Na citrate).
# (§4) Aliquots of the citrated whole blood sample were treated in vitro with the P2Y(12) antagonist MRS 2395 (Sigma-Aldrich Chemie GmbH, Steinheim, Germany). For this purpose an ethanolic MRS 2395 stock solution (15 mg/mL) was mixed with the whole blood samples so that an end concentration of 100 μmol/L was obtained.
# Further aliquots of the citrated whole blood samples were treated in vitro with the COX-1 inhibitor acetylsalicylic acid (abbr.: ASA; Sigma-Aldrich Chemie GmbH, Steinheim, Germany). […]
# To determine the closure time as a measure of platelet function the whole blood samples described under Example 2a) were investigated with the aid of the ADP/PGE1/calcium test cartridge according to the invention described in Example 1 in a PFA-100® apparatus (Platelet Function Analyzer-100, Dade Behring Marburg GmbH, Marburg, Germany). […] The time required up to the closure of the aperture by formation of a blood clot was determined as closure time. Every sample investigated was determined in duplicate and the mean value of a duplicate determination was used as the measurement value.
# Venous blood was taken from healthy donors and anticoagulated with sodium citrate (3.2% buffered Na citrate). […] Samples from 186 donors were determined in duplicate with a Col/Epi PFA-100® test cartridge [see Example 2c)]. Samples from 159 donors were determined in duplicate with an ADP/PGE1/calcium test cartridge according to the invention [see Examples 1 and 2c)].
# The reference ranges (normal range) for the Col/Epi closure time and the ADP/PGE1 closure time were established in that the measurement value ranges in which 90% of the measurement values found for the healthy subjects lay were determined (90% central interval of the normal distribution of all measurements). […]
# [3] = system: platelet function in whole blood; assay: Closure time under flow conditions, conventional Col/Epi PFA-100 test cartridge, citrated whole blood treated in vitro; assay type: cell-based, human; details: cut-off 158 seconds, MRS 2395 100 μmol/L; for Number of samples with closure times above cut-off (n = 11): ASA 30 μmol/L, citrated whole blood of 11 healthy donors
# [4] = system: platelet aggregation in platelet rich plasma; assay: ADP-induced light transmission aggregometry (according to Born), in vitro treated samples, 2 μM ADP; assay type: cell-based, human; details: MRS 2395 100 μmol/L in citrated blood, 5 min room temperature, PRP, 11 healthy donors
# Experimental: as §3, §4, §2
# In order to check whether the samples treated with MRS 2395 actually show a reduced platelet aggregation, platelet rich (PRP) and platelet poor (PPP) plasma was prepared from aliquots of the untreated and MRS 2395-treated whole blood samples described under Example 2a), and the samples were then treated with 2 μM ADP. The PPP samples were used as blank controls. The photometric measurement of the aggregation reaction was carried out in the automated coagulation apparatus BCT® (Dade Behring Marburg GmbH, Marburg, Germany) under continuous stirring (600 rpm). The platelet aggregation of the samples treated with MRS 2395 was reduced by a mean of 27% compared with the platelet aggregation of the untreated samples.
# platelet aggregation [5] = details: Method 3 aggregometry 2 μM ADP; 13 patients on 75 mg clopidogrel daily
# [6] = system: platelet function in whole blood; details: Method 2 ADP cartridge without PGE1; 13 patients on 75 mg clopidogrel daily
# Description: The samples were investigated with the aid of different methods to determine platelet function. • 1. according to the invention under flow conditions and use of an ADP/PGE1/calcium PFA-100® test cartridge (see Examples 1 and 2c), cut-off: >81 seconds; • 2. under flow conditions and use of a PFA-100® test cartridge that differed from the test cartridge according to the invention in accordance with Example 1 in that it comprised no PGE1, cut-off: >78 seconds; • 3. with ADP-induced light transmission aggregometry (according to Born) with addition of 2 μM ADP (see Example 2b), cut-off: <40% light transmission at end of test; • 4. with ADP-induced light transmission aggregometry (according to Born) with the addition of 5 μM ADP (see example 2b), cut-off: <40% light transmission at end of test. This method is recommended by Sanofi-Aventis, the manufacturer of the clopidogrel preparation Plavix®, for the determination of the antithrombotic effect of the medicament.
# The cut-offs for the individual test procedures were determined by preliminary investigations with whole blood and plasma samples of normal donors.
# “+” means an antithrombotic effect could be detected. “−” means no antithrombotic effect could be detected. “0” means that the duplicate determination gave contradictory results, i.e. one value above and one value below the cut-off.
# [7] = system: platelet function in whole blood; details: Method 1 ADP/PGE1/calcium cartridge; 13 patients on 75 mg clopidogrel daily
# platelet aggregation [8] = details: Method 4 aggregometry 5 μM ADP; 13 patients on 75 mg clopidogrel daily
SMILES,Number of samples with closure times above cut-off (n = 10) [1],Number of samples with closure times above cut-off (n = 10) ([1]; listed as acetylsalicylic acid),"closure time relative to cut-off (FIG. 3, mean values) [1]",Number of samples with closure times above cut-off (n = 11) [2],Number of samples with closure times above cut-off (n = 11) ([2]; listed as acetylsalicylic acid),Number of samples with closure times above cut-off (n = 11) [3],platelet aggregation reduced compared with untreated samples (mean) [4] [%],"closure time relative to cut-off (FIG. 2, mean values) ([2]; citrated blood, 11 donors)","closure time relative to cut-off (FIG. 2, mean values) ([3]; citrated blood, 11 donors)",Sensitivity (share of 13 patients with detected antithrombotic effect) (platelet aggregation [5]) [%],Sensitivity (share of 13 patients with detected antithrombotic effect) [6] [%],Sensitivity (share of 13 patients with detected antithrombotic effect) [7] [%],number of patients in whom the antithrombotic effect could be detected (of 13) [7],Sensitivity (share of 13 patients with detected antithrombotic effect) (platelet aggregation [8]) [%]
"CC(=O)Oc1ccccc1C(=O)O [Acetylsalicylic acid, acetylsalicylic acid]",0,none,no prolongation of closure times,1,one,8,,,,,,,,
"CNc1ncnc2c1ncn2[C@H]1C[C@H](OP(=O)(O)O)[C@@H](COP(=O)(O)O)O1.N.N [MRS 2179, 2′-deoxy-N6-methyladenosine-3′,5′-bisphosphate, diammonium salt]",10,,closure times that lie significantly above the reference value (cut-off),,,,,,,,,,,
"CNc1nc(Cl)nc2c1ncn2CC(COC(=O)C(C)(C)C)COC(=O)C(C)(C)C [MRS 2395, 2,2-dimethyl-propionic acid 3-(2-chloro-6-methylaminopurin-9-yl)-2-(2,2-dimethyl-propionyloxymethyl)-propyl ester]",9,,closure times that lie significantly above the reference value (cut-off),9,,4,27,closure times that lie significantly above the upper reference value (cut-off),lie to a greater extent below the upper reference value (cut-off),,,,,
COC(=O)[C@H](c1ccccc1Cl)N1CCc2sccc2C1 [clopidogrel],,,,,,,,,,69,46,77,10,62
